Results on 26 compounds are retold here after ChEMBL document CHEMBL1136817, “1,3,4-Trisubstituted pyrrolidine CCR5 receptor antagonists: modifications of the arylpropylpiperidine side chains” (Bioorg Med Chem Lett, 2003).

The target in data set [1] is T1, C-C chemokine receptor type 5 (Homo sapiens, UniProt P51681). The experiment in a line: (§1) Ability to displace [125I]- labeled MIP-1alpha from CCR5 receptor expressed on CHO cell membrane. It is filed as cell membranes.
Target sequence in this assay (P51681 whole entry): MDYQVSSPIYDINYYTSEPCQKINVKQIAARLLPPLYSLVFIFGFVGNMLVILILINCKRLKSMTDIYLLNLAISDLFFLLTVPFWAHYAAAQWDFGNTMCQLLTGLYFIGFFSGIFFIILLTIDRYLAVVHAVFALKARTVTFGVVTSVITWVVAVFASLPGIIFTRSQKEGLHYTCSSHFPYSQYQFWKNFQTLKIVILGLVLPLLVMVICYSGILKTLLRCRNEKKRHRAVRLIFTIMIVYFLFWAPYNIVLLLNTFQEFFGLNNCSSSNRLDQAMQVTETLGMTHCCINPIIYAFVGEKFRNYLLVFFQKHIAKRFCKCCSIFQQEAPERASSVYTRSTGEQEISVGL
Data set [2] deals with Human immunodeficiency virus 1. Nature of the data set: In vitro antiviral activity against HIV-1 (BAL) in HeLa cells. It is filed as functional.
Data set [3] is described as follows: Oral bioavailability in rat. It is filed as ADME, organism-based. The following applies: in vivo.
For data set [4], the target named is T1, C-C chemokine receptor type 5. The description is as §1. The data set is classed as cell membranes. This is another data set of the same source.
Target sequence in this assay (P51681 whole entry, looked up): as the sequence (P51681 whole entry) above
A short description of data set [5]: Volume of distribution was evaluated in rat. The data set is classed as ADME, organism-based. The following applies: in vivo, read-out: Vdss.
Data set [6] can be described thus: Inhibitory concentration measured by peripheral blood mononuclear cells (BAL) viral assay. It is filed as functional, Homo sapiens.
Data set [7] can be described thus: Plasma clearance was evaluated in rat. The data set is classed as ADME, organism-based. The following applies: read-out: Clp.
A short description of data set [8]: Half life was evaluated in rat. The following applies: in vivo. The data set is classed as ADME, organism-based.
Data set [9] in a line: Plasma clearance was evaluated in dog. It is filed as ADME, organism-based, Canis lupus familiaris. The following applies: read-out: Clp.
A short description of data set [10]: Oral bioavailability in dog. It is filed as ADME, organism-based, Canis lupus familiaris. The following applies: in vivo.
A short description of data set [11]: Half life was evaluated in dog. It is filed as ADME, organism-based, Canis lupus familiaris. The following applies: in vivo.
Data set [12] is described as follows: Inhibitory concentration by Peripheral blood mononuclear cells assay. The data set is classed as functional. The following applies: Homo sapiens.
A short description of data set [13]: Plasma clearance was evaluated in rhesus. The data set is classed as ADME, organism-based. The following applies: cercopithecidae, read-out: Clp.
The nature of data set [14]: Oral bioavailability in Rhesus monkey. The following applies: in vivo. The data set is classed as ADME, organism-based, Macaca mulatta.
The nature of data set [15]: Volume of distribution was evaluated in rhesus. It is filed as ADME, organism-based. The following applies: cercopithecidae, in vivo; read-out: Vdss.
The nature of data set [16]: Volume of distribution was evaluated in dog. The data set is classed as ADME, organism-based, Canis lupus familiaris. The following applies: in vivo, read-out: Vdss.
Data set [17] is described as follows: Inhibitory concentration measured by Peripheral blood mononuclear cells (BAL) viral assay. The following applies: Homo sapiens. The data set is classed as functional.
Data set [18] can be described thus: Half life was evaluated in rhesus. It is filed as ADME. The following applies: cercopithecidae, in vivo.
A short description of data set [19]: Oral bioavailability. The data set is classed as ADME, organism-based. The following applies: rat, in vivo.
The subject of another data set is HeLa. Nature of the data set: Inhibitory concentration obtained in the HeLa cell anti infectivity assay versus BAL strain. It is filed as functional. The following applies: Homo sapiens.
Setting [20] is: Human immunodeficiency virus 1, HeLa.

The structures appear in SMILES notation. Where only a bound is given, the exact number is not on record here.

As for `O=C(O)[C@@H](CC1CCC1)N1C[C@H](CN2CCC(CC[S+]([O-])c3ccc(F)cc3)CC2)[C@@H](c2cccc(F)c2)C1` (stereo in doubt; 31), the IC50 (commonly the concentration that inhibits the measured activity by half) in [1] came to 0.4 nM. Further, it took 0.8 nM to reach the 90% level in data set [2] (IC90).

Regarding `O=C(O)[C@@H](CC1CC1)N1C[C@H](CN2CCC(CCC(CO)c3ccc(F)cc3)CC2)[C@@H](c2cccc(F)c2)C1` (stereo partly drawn), the IC50 in [1] was determined as 4.8 nM. Moreover, in data set [2] (setting [20]), the IC90 (usually the concentration needed for an effect of 90%) came out at 33 nM.

Turning to `O=C(O)[C@@H](CC1CCC1)N1C[C@H](CN2CCC(CCS(=O)(=O)c3ccc(F)cc3)CC2)[C@@H](c2cccc(F)c2)C1`, the bioavailability – broadly, the share of a dose that reaches the circulation, judged against a reference dose that is usually intravenous – in [3] came out at 16%. Further, the IC95 (commonly the concentration at which the effect reaches the 95% level) in data set [4] was 0.2 nM. In addition, the Vd in data set [5] came to 1.9 L/kg. In [6], this compound came in with an IC50 of 1.6 nM. The clearance in data set [7] turned out to be 78 mL/min/kg. In [2] (setting [20]), this compound yielded an IC90 of 0.4 nM. Further, the half-life (commonly the time needed for the level to fall by half in the phase considered) in data set [8] is 0.8 h.

For `O=C(O)[C@@H](CC1CC1)N1CC(CN2CCC(CCC(F)(F)c3ccc(F)cc3)CC2)[C@@H](c2cccc(F)c2)C1` (single isomer, unassigned), the bioavailability was found to be 3.9% in data set [3], 37% in data set [10] and 8% in data set [14]. Besides, the clearance in [9] turned out to be 24 mL/min/kg; in data set [13], 17.6 mL/min/kg; in data set [7], 14 mL/min/kg. The results for the Vd in data set [5], in [15] and in data set [16] were 6.1 L/kg, 2.8 L/kg and 3.7 L/kg, respectively. For the same compound, in data set [1], the IC50 was 0.06 nM. Moreover, the figures for the half-life in data set [11], in data set [8] and in [18] were 2.4 h, 7.5 h and 5.6 h, respectively. Moreover, the IC95 in [12] is < 20 nM; in [17], 12 nM. The IC90 in data set [2] (setting [20]) amounted to 0.4 nM.

With `COC(=O)C(CCC1CCN(C[C@H]2CN([C@H](CC3CC3)C(=O)O)C[C@@H]2c2cccc(F)c2)CC1)c1ccc(F)cc1` (stereo partly drawn), the 50% inhibitory concentration (IC50) in data set [1] is 1.5 nM. For the same compound, the IC90 in data set [2] (setting [20]) was 33 nM.

Consider `O=C(O)C(CCC1CCN(C[C@H]2CN([C@H](CC3CC3)C(=O)O)C[C@@H]2c2cccc(F)c2)CC1)c1ccc(F)cc1` (stereo partly drawn), for which the IC50 in data set [1] was found to be 51 nM.

For the compound `O=C(O)[C@@H](C1CCCCC1)N1C[C@H](CN2CCC(CCS(=O)(=O)c3ccc(F)cc3)CC2)[C@@H](c2cccc(F)c2)C1`, the IC50 in data set [1] came out at 1.1 nM. The 90% effect level in data set [2] (setting [20]) (IC90) was put at 0.4 nM.

The compound `O=C(O)[C@@H](CC1CCC1)N1C[C@H](CN2CCC(CCCc3ccccc3)CC2)[C@@H](c2cccc(F)c2)C1` registered a bioavailability in [19] of 24%. In addition, in data set [1], the IC50 stood at 0.5 nM. The clearance in data set [7] amounted to 32 mL/min/kg. The compound further gave a half-life in data set [8] of 3.4 h.

In turn, `O=C(O)[C@@H](CC1CCC1)N1CC(CN2CCC(CCC(F)(F)c3ccc(F)cc3)CC2)[C@@H](c2ccccc2)C1` (single isomer, unassigned) displayed an IC50 in data set [1] of 0.2 nM.

With `CC(C)[C@H](C(=O)O)N1C[C@H](CN2CCC(CCSc3ccc(F)cc3)CC2)[C@@H](c2cccc(F)c2)C1`, the IC50 in [1] was 0.8 nM. In addition, it took 100 nM to reach the 90% level in data set [2] (setting [20]) (IC90).

Turning to `O=C(O)[C@@H](CC1CCC1)N1C[C@H](CN2CCC(CCSc3ccc(F)cc3)CC2)[C@@H](c2cccc(F)c2)C1`, in [1], the IC50 is 0.1 nM. For the same compound, in data set [2] (setting [20]), the IC90 came out at 4 nM.

In the case of `O=C(O)[C@@H](CC1CC1)N1C[C@H](CN2CCC(CCC(O)c3ccc(F)cc3)CC2)[C@@H](c2cccc(F)c2)C1` (stereo partly drawn), the bioavailability in [3] was 2%. Besides, the Vd in [5] amounted to 3.3 L/kg. In data set [1], this compound showed an IC50 of 0.4 nM. Also, the clearance in data set [7] turned out to be 76 mL/min/kg. For the same compound, the IC90 in data set [2] (setting [20]) is 1.2 nM. The compound further yielded an IC95 in data set [17] of 15 nM. This compound had a half-life in data set [8] of 0.9 h.

In the case of `O=C(O)[C@@H](C1CCCCC1)N1C[C@H](CN2CCC(CCC(F)(F)c3ccc(F)cc3)CC2)[C@@H](c2ccccc2)C1`, the IC50 in [1] is 0.3 nM. It took 4 nM to reach the 90% level in [2] (setting [20]) (IC90).

Turning to `O=C(O)[C@@H](CC1CCC1)N1C[C@H](CN2CCC(CCCc3ccccc3)CC2)[C@@H](c2ccccc2)C1`, the IC50 in [6] is < 8 nM. Moreover, the IC90 in the data set on HeLa worked out at 1.2 nM.

In data set [1], `O=C(O)[C@@H](CC1CCC1)N1C[C@H](CN2CCC(CCCc3ccc(C(F)(F)F)cc3)CC2)[C@@H](c2cccc(F)c2)C1` returned an IC50 of 0.2 nM. Moreover, the 90% effect level in data set [2] (setting [20]) (IC90) was put at 11 nM.

`O=C(O)[C@@H](CC1CCC1)N1C[C@H](CN2CCC(CC[S+]([O-])c3ccc(F)cc3)CC2)[C@@H](c2cccc(F)c2)C1` (stereo in doubt; 30) gave a concentration for half-maximal inhibition (IC50) in data set [1] of 0.5 nM. The compound also yielded an IC90 in data set [2] of 33 nM.

Regarding `O=C(O)[C@@H](CC1CC1)N1C[C@H](CN2CCC(CCC3(c4ccc(F)cc4)OCCO3)CC2)[C@@H](c2cccc(F)c2)C1`, the IC50 in data set [1] came out at 3.7 nM. The same compound displayed an IC90 in [2] (setting [20]) of 100 nM.

As to `O=C(O)[C@@H](CC1CCC1)N1CC(CN2CCC(CCC(F)(F)c3ccc(F)cc3)CC2)[C@@H](c2cccc(F)c2)C1` (single isomer, unassigned), the bioavailability in data set [3] turned out to be 32%; in data set [14], 12%. Further, the Vd in [5] turned out to be 2.2 L/kg; in [15] it was 1.8 L/kg. The same compound showed an IC50 in [1] of 0.3 nM. The clearance was 11 mL/min/kg in data set [13] and 18 mL/min/kg in data set [7]. Besides, the IC90 in [2] (setting [20]) turned out to be 1.6 nM. In addition, the IC95 in data set [17] was 18 nM. Besides, the half-life in [8] is 3.1 h; in data set [18], 2.4 h.

On to `CC(O)(CCC1CCN(C[C@H]2CN([C@H](CC3CC3)C(=O)O)C[C@@H]2c2cccc(F)c2)CC1)c1ccc(F)cc1` (stereo partly drawn), for which, in [3], the bioavailability turned out to be 10%. Besides, the Vd in data set [5] amounted to 3.9 L/kg. In data set [1], this compound came in with an IC50 of 1.6 nM. Also, the clearance in data set [7] stood at 5.4 mL/min/kg. This compound returned an IC90 in data set [2] (setting [20]) of 1.2 nM. Besides, in data set [8], the half-life is 1.6 h.

`CC(C)[C@H](C(=O)O)N1C[C@H](CN2CCC(CCS(=O)(=O)c3ccc(F)cc3)CC2)[C@@H](c2cccc(F)c2)C1` had an IC50 in [1] of 0.9 nM. Further, the 90% effect level in data set [2] (setting [20]) (IC90) was put at 4 nM.

Take `N#Cc1ccc(CCCC2CCN(C[C@H]3CN([C@H](CC4CCC4)C(=O)O)C[C@@H]3c3cccc(F)c3)CC2)cc1`: the bioavailability in [19] was determined as 7%. The compound further had an IC50 in data set [1] of 0.3 nM. The clearance in [7] was 47.8 mL/min/kg. For the same compound, it took 0.4 nM to reach the 90% level in data set [2] (setting [20]) (IC90). The compound further showed a half-life in data set [8] of 1 h.

The compound `O=C(O)[C@@H](CC1CC1)N1C[C@H](CN2CCC(CCP(=O)(O)c3ccccc3)CC2)[C@@H](c2cccc(F)c2)C1` displayed an IC50 in data set [1] of 1000 nM.

In data set [1], `CC(C)[C@H](C(=O)O)N1C[C@H](CN2CCC(CCC(F)(F)c3ccc(F)cc3)CC2)[C@@H](c2cccc(F)c2)C1` displayed an IC50 of 0.5 nM. The same compound gave an IC90 in data set [2] (setting [20]) of 33 nM.

As to `O=C(CCC1CCN(C[C@H]2CN([C@@H](C(=O)O)C3CCCCC3)C[C@@H]2c2ccccc2)CC1)c1ccc(F)cc1`, the IC50 in data set [1] worked out at 1.6 nM. In [2] (setting [20]), this compound came in with an IC90 of 100 nM.

With `COP(=O)(CCC1CCN(C[C@H]2CN([C@H](CC3CC3)C(=O)O)C[C@@H]2c2cccc(F)c2)CC1)c1ccccc1` (stereo partly drawn), the IC50 in [1] is 19 nM.

As to `O=C(O)[C@@H](CC1CCC1)N1C[C@H](CN2CCC(CCCc3ccc(F)cc3)CC2)[C@@H](c2cccc(F)c2)C1`, in [19], the bioavailability amounted to 16%. In data set [1], this compound showed an IC50 of 0.8 nM. For the same compound, in [7], the clearance was 32 mL/min/kg. Besides, in data set [2] (setting [20]), the IC90 stood at 2 nM. In [8], this compound had a half-life of 3.4 h.
